Where a name gives a salt, the structure may show the parent alone. Read-outs that look alike come from different tables or passages of the source.
Tested on: Human Skeletal Cells (SKM)
Experiment: Protective effect on cell death induced by maitotoxin on human skeletal cells (SKM), WST-1 readout
Type: cell-based
Conditions: maitotoxin 24 h
Procedure: The principle of the test is the following: maitotoxin is a toxin which causes the opening of the calcium channels of cells. The resulting intra-cellular flow of calcium is at the origin of the death of the cell. During this process of cell death, a cysteine-dependent protease, calpain, is activated, and an abundance of free radicals is produced. The test consists of incubating the cells in the presence of the composition to be tested, in order to delay or inactivate cell death and thus determine the protective effect.
The myoblasts are seeded at 2500 cells per well in 96-well plates in a DMEM 10% FCS (foetal calf serum) culture medium supplemented with amphotericin B, human recombinant epidermal growth factor and dexamethasone. Three days after seeding, the cells have adhered to the base of the well, the differentiation of the cells to myotubes is induced by adding 100 μl of DMEM F12 medium containing 2% horse serum. After three more days, 100 μl of compound to be tested are placed at the bottom of the well. After incubation for one hour at 37° C. under an atmosphere of 5% CO2, the maitotoxin (MTX) (Wako, ref: 131-10731) is added to evaluate the protective effect (concentration-effect) of the compound to be tested on cell death.
After an incubation time of 24 h, the culture medium is replaced by a DMEM 10% FCS medium supplemented by WST-1. […] The cells are incubated for 1 hour in the presence of WST-1. Then the number of live cells is determined using a Perkin-Elmer Wallac Envision 2101 device by reading the absorbance at 450 nm. The concentration-effect of the products on the cell survival rate is then calculated.
The CE50 is deduced by linear regression: concentration with respect to the percentage of protection. The mathematical method used is the isobologram approach described in: “Drug synergism and dose-effect data analysis, Ronald J. Tallarida, Chapman & Hall/CRC, 2000”.

Work on `CC(=O)OC1OCC[C@@H]1NC(=O)[C@H](CC(C)C)NC(=O)c1ccc2c(c1)Nc1ccccc1S2` (stereo partly drawn) [(3S)-3-{[N-(10H-phenothiazin-2-ylcarbonyl)-L-leucyl]amino}tetrahydrofuran-2-yl acetate] yielded an EC50 (Homo sapiens, 24 h, read-out: EC50 μM After incubation for 24 h with the toxin, single substance (proportion 1), cell mortality rate induced by the toxin 97%) of 29.1 µM.
In the case of `CC(C)C[C@H](NC(=N)c1ccc2c(c1)Nc1ccccc1S2)C(=O)N[C@H]1CCOC1O` (stereo partly drawn) [Example 5, N^1-[(3S)-2-hydroxytetrahydrofuran-3-yl]-N^2-[imino(10H-phenothiazin-2-yl)methyl]-L-leucinamide hydroiodide], the EC50 (Homo sapiens, 24 h, read-out: EC50 μM After incubation for 24 h with the toxin, single substance (proportion 1), cell mortality rate induced by the toxin 84%) is reported as 6.26 µM.
`CC(C)C[C@H](NC(=N)c1ccc2c(c1)Nc1ccccc1S2)C(=O)N[C@H]1CCOC1O` (stereo partly drawn) [Example 7, N^1-[(3S)-2-hydroxytetrahydrofuran-3-yl]-N^2-[imino(10H-phenothiazin-2-yl)methyl]-L-leucinamide hydrochloride] gave an EC50 (Homo sapiens, 24 h, read-out: EC50 μM After incubation for 24 h with the toxin, single substance (proportion 1), cell mortality rate induced by the toxin 96%) of 5.92 µM.
In the case of `C[C@H]1C[C@@H]2[C@H]([C@@H](O)C[C@@]3(C)[C@H]2CC[C@]3(O)C(=O)CO)[C@@]2(C)C=CC(=O)C=C12` [α-methylprednisolone], the EC50 (single substance (proportion 1), cell mortality rate induced by the toxin 84%, read-out: EC50 μM After incubation for 24 h with the toxin) is reported as 87.6 µM, the EC50 (single substance (proportion 1), cell mortality rate induced by the toxin 96%, read-out: EC50 μM After incubation for 24 h with the toxin) is reported as 169 µM and the EC50 (single substance (proportion 1), cell mortality rate induced by the toxin 97%, read-out: EC50 μM After incubation for 24 h with the toxin) is reported as 107 µM.

— US8642591B2, “Composition containing amidine derivatives or carboxamide derivatives and steroids, as a medicament” (priority 2006, dated 2014)
